ChEMBL document CHEMBL5233262, “Anti-inflammatory activity of naturally occuring diarylheptanoids - A review” (Bioorg Med Chem, 2021)
Values after ≈ are worked out from the molar mass of the structure shown.

What was measured:
RAW264.7 [1] = assay: Antiinflammatory activity in mouse RAW264.7 cells assessed as inhibition of LPS-induced NO production; format: functional, cell-based
RAW264.7 [2] = assay: Antiinflammatory activity in mouse RAW264.7 cells assessed as inhibition of LPS-induced TNFalpha production; format: functional, cell-based
Rattus norvegicus [3] = assay: Antiinflammatory activity in rat model of carrageenan-induced hind paw edema assessed as reduction in paw thickness at 100 mg/kg,ip 30mins before carrageenin exposure and measured after 3 hrs; format: functional; parameters: scale not given: the % may be the effect or the level left
Rattus norvegicus [4] = assay: Antiinflammatory activity in rat model of ethyl phenylpropiolate-induced ear edema assessed as reduction in ear thickness administered topically and measured after 30 mins; format: functional; settings: 0.5 h
Rattus norvegicus [5] = assay: Antiinflammatory activity in rat model of ethyl phenylpropiolate-induced ear edema assessed as reduction in ear thickness administered topically and measured after 1 hr; format: functional
Mus musculus [6] = assay: Antiinflammatory activity in ICR mouse model of thioacetamide-induced hepatotoxicity assessed as reduction in TNF-alpha expression at 1 mg/kg,ip pretreated with compound followed by TA induction and measured after 24 hrs by RT-PCR analysis; format: functional; parameters: scale not given: the % may be the effect or the level left
Mus musculus [7] = assay: Protective activity in Pde6brd10 mouse model of Retinitis pigmentosa assessed as decrease in NO production in retina at 5 mg/kg,ip for 14 days by Griess assay; format: functional; parameters: scale not given: the % may be the effect or the level left; settings: time 14 day
Mus musculus [8] = assay: Protective activity in Pde6brd10 mouse model of Retinitis pigmentosa assessed as decrease in IL-1beta production in retina at 5 mg/kg,ip for 14 days by ELISA; format: functional; parameters: scale not given: the % may be the effect or the level left; settings: time 14 day
Mus musculus [9] = assay: Protective activity in Pde6brd10 mouse model of Retinitis pigmentosa assessed as decrease in IL-6 production in retina at 5 mg/kg,ip for 14 days by ELISA; format: functional; parameters: scale not given: the % may be the effect or the level left; settings: time 14 day
Mus musculus [10] = assay: Protective activity in Pde6brd10 mouse model of Retinitis pigmentosa assessed as decrease in IL-12 production in retina at 5 mg/kg,ip for 14 days by ELISA; format: functional; parameters: scale not given: the % may be the effect or the level left; settings: time 14 day
Mus musculus [11] = assay: Protective activity in Pde6brd10 mouse model of Retinitis pigmentosa assessed as decrease in TNFalpha production in retina at 5 mg/kg,ip for 14 days by ELISA; format: functional; parameters: scale not given: the % may be the effect or the level left; settings: time 14 day
Mus musculus [12] = assay: Protective activity in Pde6brd10 mouse model of Retinitis pigmentosa assessed as decrease in IL-1beta gene expression level in retina at 5 mg/kg,ip for 14 days by qRT-PCR analysis; format: functional; parameters: scale not given: the % may be the effect or the level left; settings: time 14 day
Mus musculus [13] = assay: Protective activity in Pde6brd10 mouse model of Retinitis pigmentosa assessed as decrease in IL-6 gene expression level in retina at 5 mg/kg,ip for 14 days by qRT-PCR analysis; format: functional; parameters: scale not given: the % may be the effect or the level left; settings: time 14 day
Mus musculus [14] = assay: Protective activity in Pde6brd10 mouse model of Retinitis pigmentosa assessed as decrease in IL-12 gene expression level in retina at 5 mg/kg,ip for 14 days by qRT-PCR analysis; format: functional; parameters: scale not given: the % may be the effect or the level left; settings: time 14 day
Mus musculus [15] = assay: Protective activity in Pde6brd10 mouse model of Retinitis pigmentosa assessed as decrease in TNF-alpha gene expression level in retina at 5 mg/kg,ip for 14 days by qRT-PCR analysis; format: functional; parameters: scale not given: the % may be the effect or the level left; settings: time 14 day
Mus musculus [16] = assay: Protective activity in Pde6brd10 mouse model of Retinitis pigmentosa assessed as decrease in NF-kappaB expression level in retina at 5 mg/kg,ip for 14 days by Western blot analysis; format: functional; parameters: scale not given: the % may be the effect or the level left; settings: time 14 day
[17] = Antiinflammatory activity in C57BL/6 mouse BMDC cells assessed as inhibition of imiquimod-induced IL-1beta mRNA expression level at 10 uM and measured after 12 hrs by qpCR analysis; format: functional; settings: C57BL/6, BMDC
[18] = Antiinflammatory activity in C57BL/6 mouse BMDC cells assessed as inhibition of imiquimod-induced IL-6 mRNA expression level at 10 uM and measured after 12 hrs by qpCR analysis; format: functional; settings: C57BL/6, BMDC
[19] = Antiinflammatory activity in C57BL/6 mouse BMDC cells assessed as inhibition of imiquimod-induced IL-12 mRNA expression level at 10 uM and measured after 12 hrs by qpCR analysis; format: functional; settings: C57BL/6, BMDC
[20] = Antiinflammatory activity in C57BL/6 mouse BMDC cells assessed as inhibition of imiquimod-induced IL-1beta expression level at 10 uM and measured after 12 hrs by western blot analysis; format: functional; settings: C57BL/6, BMDC
[21] = Antiinflammatory activity in C57BL/6 mouse BMDC cells assessed as inhibition of imiquimod-induced IL-6 expression level at 10 uM and measured after 12 hrs by western blot analysis; format: functional; settings: C57BL/6, BMDC
[22] = Antiinflammatory activity in C57BL/6 mouse BMDC cells assessed as inhibition of imiquimod-induced IL-12 expression level at 10 uM and measured after 12 hrs by western blot analysis; format: functional; settings: C57BL/6, BMDC
[23] = Antiinflammatory activity in human HAP1 cells assessed as inhibition of LPS-induced p38 MAPK activation at 5 uM; format: functional
RAW264.7 [24] = assay: Antiinflammatory activity in mouse RAW264.7 cells assessed as inhibition of LPS-induced NO production for 24 hrs by colorimetric analysis; format: functional, cell-based; settings: RAW264.7, 24 h
[25] = Anti-osteoclastogenic activity in human BMDC assessed in inhibition of RANKL mediated osteoclast differentiation; format: functional, cell-based
[26] = Antiinflammatory activity in human HAP1 cells assessed as inhibition of LPS-induced NO production at 5 uM; format: functional
[27] = Antiinflammatory activity in human HAP1 cells assessed as inhibition of LPS-induced iNOS expression at 5 uM; format: functional
[28] = Antiinflammatory activity in human HAP1 cells assessed as inhibition of LPS-induced NF-kappaB activation at 5 uM; format: functional
[29] = Antiinflammatory activity in human HAP1 cells assessed as inhibition of LPS-induced ROS production at 5 uM; format: functional
Zingiber officinale = assay: Inhibition of prostaglandin biosynthesis in ginger; format: functional, organism-based
Mus musculus [30] = assay: Antiinflammatory activity in TPA-induced ear edema ICR mouse model assessed as inhibition of ear inflammation at 1 ug, TOP for 30 mins followed by TPA addition and measured after 6 hrs; format: functional; settings: dose 1 µg, time 390 min, 6.5 h
RAW264.7 [31] = assay: Antiinflammatory activity in mouse RAW264.7 cells assessed as inhibition of LPS-induced NO production incubated for 20 hrs by Griess reagent based microplate reader analysis; format: functional, cell-based; settings: RAW264.7, 20 h
RAW264.7 [32] = assay: Cytotoxicity against mouse RAW264.7 cells assessed as reduction in cell viability at 0.07 to 0.1 mg/ml incubated for 24 hrs by MTT assay; format: toxicity, cell-based; settings: raw264.7, 24 h, dose 0.07-0.1 mg/ml
HepG2 [33] = assay: Antiinflammatory activity in human HepG2 cells assessed as inhibition of LPS-induced IL-1beta mRNA expression at 10 ug/ml preincubated for 1 hrs followed by LPS stimulation and measured after 24 hrs by qPCR analysis; format: functional; settings: time 25 hrs
HepG2 [34] = assay: Antiinflammatory activity in human HepG2 cells assessed as inhibition of LPS-induced IL-6 mRNA expression at 10 ug/ml preincubated for 1 hrs followed by LPS stimulation and measured after 24 hrs by qPCR analysis; format: functional; settings: time 25 hrs
HepG2 [35] = assay: Antiinflammatory activity in human HepG2 cells assessed as inhibition of LPS-induced TNFalpha mRNA expression at 10 ug/ml preincubated for 1 hrs followed by LPS stimulation and measured after 24 hrs by qPCR analysis; format: functional; settings: time 25 hrs
RAW264.7 [36] = assay: Antiinflammatory activity in mouse RAW264.7 cells assessed as inhibition of LPS-induced NO production at 25 uM incubated for 24 hrs by Griess reagent based assay; format: functional
[37] = Antiinflammatory activity in human PBMC cells assessed as inhibition of LPS-induced IL-1beta production at 25 uM incubated for 18 hrs by ELISA; format: functional
[38] = Antiinflammatory activity in human PBMC cells assessed as inhibition of LPS-induced TNFalpha production at 25 uM incubated for 18 hrs by ELISA; format: functional
RAW264.7 [39] = assay: Antiinflammatory activity in mouse RAW264.7 cells assessed as inhibition of LPS-induced iNOS mRNA expression at 25 uM incubated for 12 hrs by PCR analysis; format: functional
RAW264.7 [40] = assay: Antiinflammatory activity in mouse RAW264.7 cells assessed as inhibition of LPS-induced COX-2 mRNA expression at 25 uM incubated for 12 hrs by PCR analysis; format: functional
RAW264.7 [41] = assay: Antiinflammatory activity in mouse RAW264.7 cells assessed as inhibition of KLA-induced TNFalpha expression at 0.02 mg/ml and measured after 24 hrs by ELISA; format: functional

## COc1cc([C@@H](O)[C@@H](O)[C@@H](O)C[C@H](O)CCc2ccc(O)cc2)ccc1O
RAW264.7 [1]
  IC50: 32.6 µg/mL (≈ 86.1 µM)
RAW264.7 [2]
  IC50: > 100000 nM

## OC(/C=C/C=C/c1ccccc1)CCc1ccccc1 (configuration not stated)
Rattus norvegicus [3]
  Activity: 39%
Rattus norvegicus [4]
  ID50: 129 µg
Rattus norvegicus [5]
  ID50: 312 µg
Mus musculus [6]
  Activity: 53%

## COc1c2cc(c(OC)c1O)-c1cc(ccc1O)CC[C@@H](O)CCCC2
Mus musculus [7]
  Activity: 21%
Mus musculus [8]
  Activity: 22%
Mus musculus [9]
  Activity: 12%
Mus musculus [10]
  Activity: 12%
Mus musculus [11]
  Activity: 16%
Mus musculus [12]
  Activity: 41%
Mus musculus [13]
  Activity: 31%
Mus musculus [14]
  Activity: 38%
Mus musculus [15]
  Activity: 49%
Mus musculus [16]
  Activity: 50%

## O=C(/C=C/C=C/c1ccc(O)cc1)CCc1ccc(O)cc1
[17]
  inhibition at 10 µM: 86%
[18]
  inhibition at 10 µM: 61%
[19]
  inhibition at 10 µM: 69%
[20]
  inhibition at 10 µM: 56%
[21]
  inhibition at 10 µM: 58%
[22]
  inhibition at 10 µM: 31%

## Oc1ccc(CC[C@@H](O)CC/C=C/c2ccccc2)cc1O
[23]
  inhibition at 5 µM: 44%
RAW264.7 [24]
  IC50: 420 nM
[25]
  IC50: 325 nM
[26]
  inhibition at 5 µM: 91%
[27]
  inhibition at 5 µM: 85%
[28]
  inhibition at 5 µM: 52%
[29]
  inhibition at 5 µM: 90%

## COc1cc(CC/C=C/C(=O)CCc2ccccc2)ccc1O
Zingiber officinale
  IC50: 50000 nM
Mus musculus [30]
  ID50: 2.2 µmol
RAW264.7 [31]
  IC50: 600 nM
RAW264.7 [32]
  Activity: > 80%
HepG2 [33]
  inhibition at 10 µg/mL: 86%
HepG2 [34]
  inhibition at 10 µg/mL: 52%
HepG2 [35]
  inhibition at 10 µg/mL: 85%
RAW264.7 [36]
  inhibition at 25 µM: 50%
[37]
  inhibition at 25 µM: 85%
[38]
  inhibition at 25 µM: 43%
RAW264.7 [39]
  inhibition at 25 µM: 75.5%
RAW264.7 [40]
  inhibition at 25 µM: 54.6%
RAW264.7 [41]
  inhibition at 20 µg/mL: 54%
